Assays:
Assay type in all cases: biochemical
[1] = molecular target: T1, stromelysin (MMP-3) (Homo sapiens, UniProt P08254); test: Enzymatic activity of the catalytic domain of human stromelysin, fluorogenic substrate; details: pH 6.5, 15 min preincubation
T1 construct: enzymatic activity of the catalytic domain of human stromelysin; made in house
Experimental: (§1) Preparation and determination of the enzymatic activity of the catalytic domain of human stromelysin and of neutrophil collagenase.
(§2) The two enzymes—stromelysin (“MMP-3”) and neutrophil collagenase (“MMP-8”)—were prepared according to Ye et al., 31 BIOCHEMISTRY 11231 (1992). For the measurement of the enzyme activity or of the enzyme inhibitor action, 70 μl of buffer solution and 10 μl of enzyme solution are incubated for 15 minutes with 10 μl of a 10% strength (v/v) aqueous dimethyl sulfoxide solution which optionally contains the enzyme inhibitor. After addition of 10 μl of a 10% strength (v/v) aqueous dimethyl sulfoxide solution which contains 1 mmol/l of the substrate, the enzyme reaction is monitored by fluorescence spectroscopy (328 nm (ex)/393 nm(em)).
(§3) The enzyme activity is shown as extinction increase/minute. The IC50 values listed in Table 2 are determined as those inhibitor concentrations which in each case lead to a 50% inhibition of the enzyme.
(§4) The buffer solution contains 0.05% Brij (Sigma, Deisenhofen, Germany) and 0.1 mol/l of tris/HCl, 0.1 mol/l of NaCl, 0.01 mol/l of CaCl2 and 0.1 mol/l of piperazine-N,N′-bis[2-ethanesulfonic acid] (pH=6.5).
(§5) The enzyme solution contains 5 μg/ml of one of the enzyme domains prepared according to Ye et al. The substrate solution contains 1 mmol/l of the fluorogenic substrate (7-methoxycoumarin4-yl)acetyl-Pro-Leu-Gly-Leu-3-(2′,4′-dinitrophenyl)-L-2,3-diaminopropionyl-Ala-Arg-NH2 (Bachem, Heidelberg, Germany).

[2] = molecular target: T2, neutrophil collagenase (MMP-8) (Homo sapiens, UniProt P22894); test: Enzymatic activity of the catalytic domain of neutrophil collagenase, fluorogenic substrate; details: pH 6.5, 15 min preincubation
T2 construct: catalytic domain of human stromelysin and of neutrophil collagenase; made in house
T2 sequence (P22894 100-262 limits assumed): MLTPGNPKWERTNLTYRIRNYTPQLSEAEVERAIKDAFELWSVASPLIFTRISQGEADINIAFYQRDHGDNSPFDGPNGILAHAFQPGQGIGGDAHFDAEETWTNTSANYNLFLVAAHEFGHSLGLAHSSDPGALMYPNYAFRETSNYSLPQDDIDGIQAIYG
Experimental: as §1, §2, §3, §4, §5

[3] = tested on: aggrecanase; test: Aggrecanase activity from rat chondrosarcoma cell supernatant, rAgg1mut cleavage detected by BC-3 Western blot; details: RCS cell culture supernatant, 1 h preincubation, 4 h incubation with rAgg1mut
Experimental: Preparation and determination of the enzymatic activity of the catalytic domain of aggrecanase using rat chondrosarcoma cells:
For the generation of the as yet not identified “aggrecanase” activity, rat chondrosarcoma cells (RCS) were used. Lark et al.; 270 J. BIOL. CHEM. 2550 (1995). These cells were inoculated into 96-well cell culture plates precoated with poly-L-lysine (80,000 cells/well). After stimulation of the RCS cells with retinoic acid (0.67 μM) and an incubation time of 47 hours (h) at 37° C. and 5% CO2, these cells generate the “aggrecanase” activity. The test substance compound 1 was then preincubated for 1 h in the “aggrecanase”-containing cell culture supernatant before 5 μg of eucaryotic rAgg1mut (Buttner et al., 333 BIOCHEM. J. 159 (1998); Hughes et al., 272 J. BIOL. CHEM. 20269 (1997)) were added for the detection of the “aggrecanase” cleavage activity in the cell culture supernatant of the RCS cells. After an incubation time of 4 h, the cell culture supernatant was removed and the cleavage products of the rAgg1mut fusion proteins generated by the “aggrecanase” activity were detected by means of SDS-polyacrylamide gel electrophoresis and Western Blot analyses with the monoclonal antibody BC-3. Hughes et al., 305 BIOCHEM. J. 799 (1995). […] The less cleaved rAgg1mut was detected, the more efficacious was the tested compound of the formula I.
The IC50 values listed in Table 3 are determined as those inhibitor concentrations which in each case led to a 50% inhibition of the enzyme aggrecanase.

T1 sequence (P08254 100-272 limits assumed): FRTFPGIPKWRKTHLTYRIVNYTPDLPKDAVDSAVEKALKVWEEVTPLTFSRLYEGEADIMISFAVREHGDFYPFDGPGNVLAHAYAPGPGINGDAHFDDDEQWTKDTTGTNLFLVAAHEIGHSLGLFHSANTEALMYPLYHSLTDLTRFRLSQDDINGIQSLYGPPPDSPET

In the case of CCOP(=O)(O)C(NS(=O)(=O)c1ccc(-c2ccc(Cl)cc2)cc1)c1ccccc1 (racemic) [Example 2, Monoethyl (R,S)-[1-(4′-chlorobiphenyl-4-sulfonylamino)-1-phenylmethyl]phosphonate], the IC50 [1] is reported as 5000 nM, the IC50 [2] is reported as 200 nM and the IC50 [3] is reported as 79000 nM.
Work on O=P(O)(O)C(NS(=O)(=O)c1ccc(-c2ccc(Cl)cc2)cc1)c1ccccc1 (racemic) [Example 3, (R,S)-[(4′-Chlorobiphenyl-4-sulfonylamino)phenylmethyl]-phosphonic acid] yielded an IC50 [1] of 100 nM, an IC50 [2] of 7 nM and an IC50 [3] of 22000 nM.
O=P(O)(O)C(Cc1c[nH]c2ccccc12)NS(=O)(=O)c1ccc(-c2ccc(Cl)cc2)cc1 (racemic) [Example 4, (R,S)-[1-(4′-Chlorobiphenyl-4-sulfonylamino)-2-(1H-indol-3-yl)-ethyl]phosphonic acid] showed an IC50 [1] of 500 nM, an IC50 [2] of 60 nM and an IC50 [3] of 12000 nM.
CC(NS(=O)(=O)c1ccc(-c2ccc(Cl)cc2)cc1)P(=O)(O)O (racemic) [Example 5, (R,S)-[1-(4′-Chlorobiphenyl-4-sulfonylamino)ethyl]phosphonic acid] showed an IC50 [1] of 100 nM, an IC50 [2] of 5 nM and an IC50 [3] of 25000 nM.
With CC(C)CC(NS(=O)(=O)c1ccc(-c2ccc(Cl)cc2)cc1)P(=O)(O)O (racemic) [Example 6, (R,S)-[1-(4′-chlorobiphenyl-4-sulfonylamino)-3-methylbutyl]-phosphonic acid] the IC50 [1] was 30 nM, the IC50 [2] was 3 nM and the IC50 [3] was 2400 nM.
Work on CC(C)[C@H](NS(=O)(=O)c1ccc(-c2ccc(Cl)cc2)cc1)P(=O)(O)O [Example 1, (R)-[1-(4′-Chlorobiphenyl-4-sulfonylamino)-2-methylpropyl]-phosphonic acid] yielded an IC50 [1] of 6 nM, an IC50 [2] of 1 nM and an IC50 [3] of 600 nM.
Compound O=P(O)(O)C(O)CC(NS(=O)(=O)c1ccc(-c2ccc(Cl)cc2)cc1)c1ccccc1 (stereo not drawn) [Example 8] has an IC50 [3] of 15000 nM.
COP(=O)(OC)C(O)CC(NS(=O)(=O)c1ccc(-c2ccc(Cl)cc2)cc1)c1ccc(C(F)(F)F)cc1 (stereo not drawn) [Example 10] was tested, and the IC50 [3] was 2100 nM.
O=C(O)C(CP(=O)(O)O)NS(=O)(=O)c1ccc(-c2ccc(Cl)cc2)cc1 (stereo not drawn) [Example 12] showed an IC50 [3] of 50000 nM.
O=P(O)(O)CCNS(=O)(=O)c1ccc(-c2ccc(Cl)cc2)cc1 [Example 13] gave an IC50 [3] of 50000 nM.
O=C(O)C(CCP(=O)(O)O)NS(=O)(=O)c1ccc(-c2ccc(Cl)cc2)cc1 (stereo not drawn) [Example 14] was tested, and the IC50 [3] was 55000 nM.
Work on CCOP(=O)(O)C(O)CC(NS(=O)(=O)c1ccc(-c2ccc(Cl)cc2)cc1)c1ccccc1 (stereo not drawn) [Example 15] yielded an IC50 [3] of 67000 nM.
Work on O=P(O)(O)CCNS(=O)(=O)c1ccc(-c2ccc(N3CCCC3)cc2)cc1 [Example 16] yielded an IC50 [3] of 28000 nM.
O=C(O)C(CP(=O)(O)O)NS(=O)(=O)c1ccc(-c2ccc(N3CCCC3)cc2)cc1 (stereo not drawn) [Example 17] showed an IC50 [3] of 69000 nM.
With CC(C)[C@@H](NS(=O)(=O)c1ccc(-c2ccc(Cl)cc2)cc1)P(=O)(O)O [Example 18] the IC50 [1] was 10000 nM, the IC50 [2] was 1000 nM and the IC50 [3] was 60000 nM.
CC(C)[C@H](NS(=O)(=O)c1ccc(-c2ccc(N3CCCC3)cc2)cc1)P(=O)(O)O [Example 19] was tested, and the IC50 [1] was 5 nM and the IC50 [2] was 2 nM.
For CC(NS(=O)(=O)CCc1ccc(-c2ccc(Cl)cc2)cc1)P(=O)(O)O (stereo not drawn) [Example 20], the IC50 [1] was 8 nM, the IC50 [2] was 2 nM and the IC50 [3] was 4700 nM.
With O=C(O)C(CCC(NS(=O)(=O)c1ccc(-c2ccc(Cl)cc2)cc1)P(=O)(O)O)NS(=O)(=O)c1ccc(-c2ccc(Cl)cc2)cc1 (stereo not drawn) [Example 21] the IC50 [3] was 520 nM.
For CC(NS(=O)(=O)c1ccc(-c2ccc(N3CCCC3)cc2)cc1)P(=O)(O)O (stereo not drawn) [Example 22], the IC50 [1] was 20 nM, the IC50 [2] was 20 nM and the IC50 [3] was 8300 nM.
CCCCOc1ccc(S(=O)(=O)N[C@@H](C(C)C)P(=O)(O)O)cc1 [Example 24] gave an IC50 [1] of 400 nM and an IC50 [2] of 30 nM.
Compound CC(C)[C@H](NS(=O)(=O)CCc1ccc(-c2ccc(Cl)cc2)cc1)P(=O)(O)O [Example 25] has an IC50 [1] of 3 nM and an IC50 [2] of 2 nM.
